According to patent US20200216906A1, “METHODS AND COMPOSITIONS RELATING TO THE DIAGNOSIS AND TREATMENT OF CANCER” (PRESIDENT AND FELLOWS OF HARVARD COLLEGE, priority 2015, published 2020):
Counter-ions that a name gives are not always drawn.

Tests used:
[1] = test system: cancer cell lines harboring Hippo pathway genetic alterations; test: 3D spheroid growth assay, cell lines with Hippo pathway alterations; format: cell-based; conditions: cell lines from five diverse cancer types
Description: Genetic defects that inhibit the Hippo pathway can induce tumors in model organisms. Such mutations occur in a broad range of human carcinomas, including lung, mesothelioma, colorectal, ovarian and liver cancers (Harvey et al., 2013) (Table S3). Mutations in NF2 and LATS2 are found in ˜30% of mesotheliomas and mutations in STK11 are found in 18% of lung cancers (Table S3). Previous studies have shown that aberrations in LATS2 and NF2 inactivate the Hippo pathway and overcome crowding-mediated YAP inhibition (Murakami et al., 2011). Despite the oncogenic effect of Hippo pathway mutations, the above studies would predict that the same inactivating mutations in the Hippo pathway genes (NF2, LATS2, STK11) could have an important effect, which can be exploited in chemotherapy: they might be hypersensitive to gemcitabine even in highly crowded conditions and increase the effectiveness of treatment. […] Furthermore, previous studies have shown that mutations in STK11 (LKB1) in lung cancer cell lines confer sensitivity to gemcitabine while ectopic expression of STK11 causes resistance (Xia et al., 2014; Yang, 2014). STK11 has been identified as an upstream kinase that negatively regulates YAP activity (Mohseni et al., 2014). […] Genetic aberrations in the Hippo pathway can be predictive biomarkers for response to gemcitabine.

H2052 (LATS2) cells = test: Gemcitabine and dFdU efflux by LC-MS/MS, H2052 cells; format: in vitro ADME; conditions: higher in H2052 (LATS2)
Description: Are defects in the Hippo pathway the major cause of gemcitabine sensitivity? […] Restoring the levels of LATS2 in H2052 cells caused an increase in the mRNA and proteins levels of ABCG2 and CDA (FIGS. 23C, 36A-36M).

[2] = test system: Panc02.13-YAPS6A xenografts; test: Mouse xenograft, Panc02.13-YAPS6A; format: in vivo; conditions: 50 mg/Kg, alternate days for two weeks
Description: In mouse xenograft studies, two human pancreatic cancer cell lines (Miapac2 and Panc02.13) expressing GFP or YAPS6A were injected into athymic mice. […] When the tumors were ˜200 mm^3 (as measured using a caliper), mice were randomized into treatment and control groups. The former received i.p. saline injections on alternate days for two weeks, and the latter received gemcitabine (20 mg/kg in Miapaca2-YAPS6A and 50 mg/Kg in Panc02.13-YAPS6A cohorts).
Tumorigenicity in Nude Mice. All in vivo experiments were performed using 6-week-old to 8-week-old athymic nude mice. Mice were maintained in laminar flow rooms with constant temperature and humidity. […] Cells (2×10^6 in suspension) were injected on day 0, and tumor growth was followed every 2 to 3 days by tumor diameter measurements using vernier calipers. Tumor volumes (V) were calculated using the formula: V=AB2/2 (A, axial diameter; B, rotational diameter). When the outgrowths were • 200 mm^3, mice were divided at random into two groups (control and treated, n=3-8). The treated group received gemcitabine injection or saline control on alternate days (MWF) for 2 weeks.

ABCG2 = target: T1, ABCG2 (Homo sapiens, UniProt Q9UNQ0); conditions: Cusatis and Sparreboom, 2008; cited from earlier work
T1 sequence (Q9UNQ0 1-655): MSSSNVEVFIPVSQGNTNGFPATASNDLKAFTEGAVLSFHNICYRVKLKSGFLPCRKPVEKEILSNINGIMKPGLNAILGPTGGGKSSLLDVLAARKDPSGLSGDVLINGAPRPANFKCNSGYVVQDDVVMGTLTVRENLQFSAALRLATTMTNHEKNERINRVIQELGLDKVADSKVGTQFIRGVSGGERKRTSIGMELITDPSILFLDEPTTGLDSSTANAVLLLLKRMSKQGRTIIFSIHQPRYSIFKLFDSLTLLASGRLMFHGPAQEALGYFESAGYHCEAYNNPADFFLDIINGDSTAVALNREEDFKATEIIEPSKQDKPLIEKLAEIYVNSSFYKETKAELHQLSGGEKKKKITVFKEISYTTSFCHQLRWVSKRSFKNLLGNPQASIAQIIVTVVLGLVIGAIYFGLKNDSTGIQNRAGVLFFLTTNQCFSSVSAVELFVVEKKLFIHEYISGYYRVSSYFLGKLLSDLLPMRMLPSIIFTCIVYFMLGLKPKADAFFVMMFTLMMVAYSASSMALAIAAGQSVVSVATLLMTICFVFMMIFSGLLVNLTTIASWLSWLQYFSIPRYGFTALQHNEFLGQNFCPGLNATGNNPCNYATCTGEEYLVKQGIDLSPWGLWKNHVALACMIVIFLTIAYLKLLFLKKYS

Q: Which results are given for `Nc1ccn([C@@H]2O[C@H](CO)[C@@H](O)C2(F)F)c(=O)n1` [Gemcitabine, Gemcitabine hydrochloride]?
A: EC50 [1]: < 1 µM; Effluxed gemcitabine in media, H2052 (LATS2) vs parental H2052 (LATS2−/−) (H2052 (LATS2) cells): ~10 fold; Tumor volume [2]: significant regression; Substrate of ABCG2 (ABCG2): substrates of ABCG2
